Data reported in patent US20110053995A1, “BENZENESULFONANILIDE COMPOUND INHIBITORS OF UREA TRANSPORTERS” (THE REGENTS OF THE UNIVERSITY OF CALIFORNIA, priority 2006, published 2011).

How the values were obtained:
Type in all cases: cell-based
[1] = target: T1, UT-B (Homo sapiens, UniProt Q13336); experiment: RBC lysis assay, human RBCs; settings: lysis assay, FIG. 5B, read-out: apparent EC50
T1 construct: a red blood cell (i.e., erythrocyte), which endogenously expresses the urea transporter UT-B; endogenous in cells; host or cells: human red blood cells (whole venous blood, single donor)
T1 sequence (Q13336 1-389): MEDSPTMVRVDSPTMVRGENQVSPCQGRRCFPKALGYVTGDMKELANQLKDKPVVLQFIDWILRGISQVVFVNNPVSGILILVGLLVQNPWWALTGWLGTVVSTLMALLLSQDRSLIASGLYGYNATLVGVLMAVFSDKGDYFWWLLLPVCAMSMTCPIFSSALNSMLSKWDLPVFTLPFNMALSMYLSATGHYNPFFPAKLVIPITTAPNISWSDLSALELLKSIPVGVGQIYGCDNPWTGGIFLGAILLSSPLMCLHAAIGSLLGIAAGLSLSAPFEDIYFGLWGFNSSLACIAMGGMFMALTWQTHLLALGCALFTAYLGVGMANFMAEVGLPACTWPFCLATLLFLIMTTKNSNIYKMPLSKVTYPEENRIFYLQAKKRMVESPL
From the text: Vigorous mixing was achieved by repeated pipetting.

[2] = target: T1, UT-B; experiment: Stopped-flow light scattering, urea transport in human RBCs; settings: for inhibition of urea transport, inhibitor added externally only (sidedness): inhibitor only in urea-containing solution at time of stopped-flow; for reversibility of inhibition after washing of RBCs: 10 min pre-incubation (0.1 μM ureainh-101, 0.4 μM ureainh-302), then washout
Experimental: RBC urea and water permeabilities were assayed by stopped-flow light scattering using a Hi-Tech Sf-51 instrument (Wiltshire, UK). […] After an initial osmotic shrinking phase, the kinetics of increasing cell volume caused by urea influx were measured as the time-course of 90° scattered light intensity at 530 nm, with increasing cell volume resulting in reduced scattered light intensity. As a positive control, 0.7 mM phloretin was added to the RBC suspension prior to stopped-flow experiments. Measurements of water permeability were carried out similarly, with sucrose (cell-impermeant) used instead of urea to establish a 250-mM osmotic gradient. As a positive control, HgCl2 (0.3 mM) was added to the RBC suspension prior to stopped-flow measurements. Osmotic water permeability coefficients (Pf) were computed from light scattering data as described (van Hoek et al., J Biol Chem. 267:18267-69 (1992)).
After repeating the 96-well plate RBC lysis assay to confirm compound activity (see Example 2), bona fide urea transport inhibition was determined by stopped-flow light scattering from the kinetics of urea influx (RBC swelling) in response to an inwardly directed urea gradient. Rapid mixing of an RBC suspension with a hyperosmolar solution containing excess 250 mM urea produced rapid cell shrinking due to osmotic water efflux, followed by cell swelling as urea (and water) influx occurred.
To determine EC50 values for urea transport inhibition directly, RBC urea transport was measured by stopped-flow light scattering using a non-saturating concentration of extracellular urea (to avoid possible competition effects). EC50 for inhibition of RBC urea transport was determined independently by comparing stopped-flow light scattering curves to a model of cell shrinking-swelling. […]
The two coupled differential equations describing water efflux and solute influx in response to externally added urea or methylurea were numerically integrated using the forward Euler method (Δt=0.01 s) to reproduce the biphasic changes in cell volume observed experimentally. […] For each time step, a new cell volume (normalized to the initial size; V(i+1)/V(0)) and a new cell permeant concentration (U(i+1)) were calculated from V(i+1)/V(0)=V(i)/V(0)−Δt·Pf·(S/V(0))·vw·[Ie(1−V(i)/V(0))+(Ue−Uc(i))] and Uc(i+1)=Uc(i)/V(0)−Δt·Us·(S/V(0))·vw·(Ue−Uc(i)). […] The product of Pf and the surface area-to-volume ratio (S/V(0)) was determined to be 3.4×10^2 s^−1 and 8.5×10^2 s^−1 for human and mouse erythrocytes, respectively, from water permeability measurements. […]

[3] = target: T2, mouse UT-B (Mus musculus, UniProt Q8VHL0); experiment: Stopped-flow light scattering, N-methylurea transport in mouse RBCs
T2 construct: the indicator cells are red blood cells that endogenously express the UT-B urea transporter; endogenous in cells; host or cells: red blood cells of wild-type CD1 mice
T2 sequence (Q8VHL0 1-384): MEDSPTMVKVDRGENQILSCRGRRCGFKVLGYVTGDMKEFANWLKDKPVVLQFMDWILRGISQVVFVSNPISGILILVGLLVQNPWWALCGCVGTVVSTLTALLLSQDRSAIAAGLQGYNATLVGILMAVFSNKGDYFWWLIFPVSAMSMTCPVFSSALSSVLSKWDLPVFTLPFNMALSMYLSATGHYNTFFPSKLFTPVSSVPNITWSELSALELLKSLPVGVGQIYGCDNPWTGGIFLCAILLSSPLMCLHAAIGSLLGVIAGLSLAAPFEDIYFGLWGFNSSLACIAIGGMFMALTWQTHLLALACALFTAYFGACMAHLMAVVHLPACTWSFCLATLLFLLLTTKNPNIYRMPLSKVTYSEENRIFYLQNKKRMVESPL
Experimental: As a positive control, 0.7 mM phloretin was added to the RBC suspension prior to stopped-flow experiments. Measurements of water permeability were carried out similarly, with sucrose (cell-impermeant) used instead of urea to establish a 250-mM osmotic gradient. As a positive control, HgCl2 (0.3 mM) was added to the RBC suspension prior to stopped-flow measurements. Osmotic water permeability coefficients (Pf) were computed from light scattering data as described (van Hoek et al., J Biol Chem. 267:18267-69 (1992)).
For stopped-flow experiments, a 100-mM gradient of urea (for human RBCs) or N-methylurea (for mouse RBCs) was used to minimize competition effects (apparent urea and N-methylurea affinities at 23° C. are approximately 200 and approximately 100 mM, respectively) (Mayrand et al., J Gen Physiol. 81:221-37 (1983)). N-methylurea, with greater than 2-fold slower RBC permeability than urea, was used in mouse studies to better resolve overlapping water and urea transport kinetics. Dose-response data were also collected for human RBCs using a high concentration of 1 M urea to distinguish between competitive vs. non-competitive inhibitor binding.
For these studies using mouse RBCs, methylurea was used as the transported solute instead of urea because its transport is slower, allowing better estimation of EC50 values.

In the case of `NC(=O)CSc1oc(-c2ccccc2)nc1S(=O)(=O)c1ccc(Br)cc1` [ureainh-101], the EC50 [1] is reported as 30 nM, the “inhibition of urea transport, inhibitor added externally only (sidedness)” value ([2]; 0.1 μM) is reported as “did not inhibit urea transport” and the “reversibility of inhibition after washing of RBCs” value [2] is reported as “fully reversible inhibition”. The “inhibitory potency against mouse UT-B” value [3] was “good inhibitory potencies”.
`Cc1ccc(Nc2nnc(-c3ccc(C(N)=O)cc3)c3ccccc23)cc1` [ureainh-302] was tested, and the EC50 [1] was 100 nM, the “inhibition of urea transport, inhibitor added externally only (sidedness)” value ([2]; 0.2 μM) was “had a sizable effect” and the “reversibility of inhibition after washing of RBCs” value [2] was “fully reversible inhibition”. For the same compound, the “inhibitory potency against mouse UT-B” value [3] was “good inhibitory potencies”.
